Source: ChEMBL document CHEMBL4184224, “Degradation of huntingtin mediated by a hybrid molecule composed of IAP antagonist linked to phenyldiazenyl benzothiazole derivative” (Bioorg Med Chem Lett, 2018)
The source made the active and inactive calls. The calls are words filed in the database; no cut-off is given here. Where a SMILES comes first, the peptide text is derived from it. [ ]: non-standard residue; d: D form. The star is where a group is joined. X1 = CN(C)c1ccc(/N=N/c2nc3ccc(OCCOCCOCCN*)cc3s2)cc1; Dip = N[C@H](C(=O)O)C(c1ccccc1)c1ccccc1; Chg = N[C@H](C(=O)O)C1CCCCC1; NMeA = CN[C@@H](C)C(=O)O

Assays:
Assay type in all cases: protein assay
[1] = target: T1, Baculoviral IAP repeat-containing protein 3/Huntingtin (Homo sapiens) (UniProt Q13489+P42858); test: Induction of IAP-huntingtin interaction-mediated huntingtin protein degradation in fibroblasts derived from Huntington's disease patient at 10 uM incubated for 24 to 72 hrs by Western blot method
T1 sequence (P42858 whole entry, looked up): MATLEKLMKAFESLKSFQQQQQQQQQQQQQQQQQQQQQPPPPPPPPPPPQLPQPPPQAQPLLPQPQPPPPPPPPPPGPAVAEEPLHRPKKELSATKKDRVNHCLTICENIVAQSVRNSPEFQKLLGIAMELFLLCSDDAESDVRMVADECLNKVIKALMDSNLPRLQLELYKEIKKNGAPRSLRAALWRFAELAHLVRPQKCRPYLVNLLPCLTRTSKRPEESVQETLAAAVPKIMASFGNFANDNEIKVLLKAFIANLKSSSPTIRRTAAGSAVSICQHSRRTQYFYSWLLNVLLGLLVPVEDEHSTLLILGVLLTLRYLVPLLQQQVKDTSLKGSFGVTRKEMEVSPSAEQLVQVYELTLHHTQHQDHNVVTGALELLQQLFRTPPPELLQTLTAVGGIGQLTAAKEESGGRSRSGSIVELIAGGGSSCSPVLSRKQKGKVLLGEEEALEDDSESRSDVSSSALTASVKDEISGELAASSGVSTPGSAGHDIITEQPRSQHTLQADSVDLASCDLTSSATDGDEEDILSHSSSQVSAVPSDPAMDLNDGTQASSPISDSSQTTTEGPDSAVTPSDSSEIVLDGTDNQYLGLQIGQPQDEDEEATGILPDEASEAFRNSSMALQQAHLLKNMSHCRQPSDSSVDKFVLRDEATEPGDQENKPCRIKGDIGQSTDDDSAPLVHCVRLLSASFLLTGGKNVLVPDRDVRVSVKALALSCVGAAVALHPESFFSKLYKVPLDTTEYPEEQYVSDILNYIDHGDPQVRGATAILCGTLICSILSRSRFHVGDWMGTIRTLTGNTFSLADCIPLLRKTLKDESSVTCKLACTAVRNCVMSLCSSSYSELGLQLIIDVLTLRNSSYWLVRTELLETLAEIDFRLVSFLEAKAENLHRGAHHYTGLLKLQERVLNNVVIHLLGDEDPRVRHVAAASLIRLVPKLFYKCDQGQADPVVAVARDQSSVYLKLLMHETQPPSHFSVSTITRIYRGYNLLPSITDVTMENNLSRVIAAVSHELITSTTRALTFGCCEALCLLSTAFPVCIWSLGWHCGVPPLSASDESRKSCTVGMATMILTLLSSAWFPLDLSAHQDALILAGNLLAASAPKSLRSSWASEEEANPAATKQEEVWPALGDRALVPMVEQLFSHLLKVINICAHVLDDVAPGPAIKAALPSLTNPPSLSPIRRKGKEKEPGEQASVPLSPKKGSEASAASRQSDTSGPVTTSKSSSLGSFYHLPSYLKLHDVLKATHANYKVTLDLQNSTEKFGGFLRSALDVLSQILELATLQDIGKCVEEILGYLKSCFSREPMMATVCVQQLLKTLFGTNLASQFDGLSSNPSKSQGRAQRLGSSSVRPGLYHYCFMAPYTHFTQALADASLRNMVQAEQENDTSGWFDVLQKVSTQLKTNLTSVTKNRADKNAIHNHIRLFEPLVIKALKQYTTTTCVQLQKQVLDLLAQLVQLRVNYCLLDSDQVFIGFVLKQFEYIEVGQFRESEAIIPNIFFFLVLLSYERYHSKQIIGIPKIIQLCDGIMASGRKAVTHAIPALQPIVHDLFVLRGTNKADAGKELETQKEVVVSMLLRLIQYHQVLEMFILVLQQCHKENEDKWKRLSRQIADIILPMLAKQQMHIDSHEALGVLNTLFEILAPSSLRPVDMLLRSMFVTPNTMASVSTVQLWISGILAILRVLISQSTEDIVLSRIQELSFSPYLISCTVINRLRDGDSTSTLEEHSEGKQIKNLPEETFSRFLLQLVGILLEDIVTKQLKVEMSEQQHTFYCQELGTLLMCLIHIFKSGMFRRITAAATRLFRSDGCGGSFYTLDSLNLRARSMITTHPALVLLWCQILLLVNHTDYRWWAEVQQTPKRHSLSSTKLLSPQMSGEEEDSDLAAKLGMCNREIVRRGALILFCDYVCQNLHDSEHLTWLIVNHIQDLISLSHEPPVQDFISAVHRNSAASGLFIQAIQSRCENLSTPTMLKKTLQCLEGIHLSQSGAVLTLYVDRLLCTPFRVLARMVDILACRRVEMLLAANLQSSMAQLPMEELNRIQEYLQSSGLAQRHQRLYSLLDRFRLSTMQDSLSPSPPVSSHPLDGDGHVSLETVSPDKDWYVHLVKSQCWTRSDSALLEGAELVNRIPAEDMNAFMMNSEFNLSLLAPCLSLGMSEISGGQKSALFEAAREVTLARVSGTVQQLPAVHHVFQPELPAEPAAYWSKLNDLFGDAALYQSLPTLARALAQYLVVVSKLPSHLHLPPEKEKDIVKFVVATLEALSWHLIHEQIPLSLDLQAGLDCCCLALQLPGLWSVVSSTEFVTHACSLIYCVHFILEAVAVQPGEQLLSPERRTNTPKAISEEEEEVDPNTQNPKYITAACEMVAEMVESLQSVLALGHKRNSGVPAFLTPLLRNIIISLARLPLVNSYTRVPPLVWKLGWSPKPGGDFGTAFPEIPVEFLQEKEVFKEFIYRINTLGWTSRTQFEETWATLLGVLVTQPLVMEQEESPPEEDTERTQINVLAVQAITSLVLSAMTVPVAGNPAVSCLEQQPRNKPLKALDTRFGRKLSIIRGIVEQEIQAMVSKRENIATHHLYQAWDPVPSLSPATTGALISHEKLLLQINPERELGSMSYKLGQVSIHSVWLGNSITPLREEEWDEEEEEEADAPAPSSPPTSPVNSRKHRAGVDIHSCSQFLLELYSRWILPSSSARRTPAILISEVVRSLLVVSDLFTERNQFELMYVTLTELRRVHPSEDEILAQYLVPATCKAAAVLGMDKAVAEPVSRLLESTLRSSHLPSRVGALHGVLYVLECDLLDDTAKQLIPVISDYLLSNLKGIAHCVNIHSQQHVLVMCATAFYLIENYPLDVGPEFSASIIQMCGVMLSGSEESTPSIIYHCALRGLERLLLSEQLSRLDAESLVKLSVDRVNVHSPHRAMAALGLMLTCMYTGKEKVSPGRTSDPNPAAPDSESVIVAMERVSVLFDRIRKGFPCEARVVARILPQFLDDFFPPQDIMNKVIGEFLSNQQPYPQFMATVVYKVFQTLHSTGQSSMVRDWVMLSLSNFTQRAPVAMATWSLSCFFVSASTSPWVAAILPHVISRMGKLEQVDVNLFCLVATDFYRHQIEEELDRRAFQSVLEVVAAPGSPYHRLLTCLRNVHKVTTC
T1 sequence (Q13489 whole entry, looked up): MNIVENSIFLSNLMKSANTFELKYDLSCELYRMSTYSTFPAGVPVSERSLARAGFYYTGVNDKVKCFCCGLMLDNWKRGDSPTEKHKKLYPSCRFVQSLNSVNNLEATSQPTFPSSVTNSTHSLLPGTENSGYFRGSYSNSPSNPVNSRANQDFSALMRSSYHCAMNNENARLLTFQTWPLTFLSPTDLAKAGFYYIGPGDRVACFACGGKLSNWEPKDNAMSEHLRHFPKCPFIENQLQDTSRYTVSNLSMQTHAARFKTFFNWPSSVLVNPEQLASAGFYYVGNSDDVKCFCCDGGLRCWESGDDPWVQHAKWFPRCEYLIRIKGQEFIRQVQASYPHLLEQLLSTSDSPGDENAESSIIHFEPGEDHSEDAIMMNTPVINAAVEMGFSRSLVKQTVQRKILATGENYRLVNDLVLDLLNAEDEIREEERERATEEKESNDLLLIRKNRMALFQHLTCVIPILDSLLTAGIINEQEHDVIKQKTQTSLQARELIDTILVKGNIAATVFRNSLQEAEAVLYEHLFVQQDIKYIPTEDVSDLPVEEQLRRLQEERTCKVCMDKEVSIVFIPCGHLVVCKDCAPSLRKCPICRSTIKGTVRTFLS

[2] = target: T1, Baculoviral IAP repeat-containing protein 3/Huntingtin (Homo sapiens); test: Induction of IAP-huntingtin interaction-mediated huntingtin protein degradation in fibroblasts derived from normal human subjects at 10 uM incubated for 24 to 72 hrs by Western blot method
[3] = target: T1, Baculoviral IAP repeat-containing protein 3/Huntingtin (Homo sapiens); test: Induction of IAP-huntingtin interaction-mediated huntingtin protein degradation in fibroblasts derived from normal human subjects assessed as huntingtin protein level at 10 uM incubated for 24 hrs by Western blot method (reference value: 100%)
[4] = target: T1, Baculoviral IAP repeat-containing protein 3/Huntingtin (Homo sapiens); test: Induction of IAP-huntingtin interaction-mediated huntingtin protein degradation in fibroblasts derived from normal human subjects assessed as huntingtin protein level at 10 uM incubated for 48 hrs by Western blot method (reference value: 100%)
[5] = target: T1, Baculoviral IAP repeat-containing protein 3/Huntingtin (Homo sapiens); test: Induction of IAP-huntingtin interaction-mediated huntingtin protein degradation in fibroblasts derived from normal human subjects assessed as huntingtin protein level at 10 uM incubated for 72 hrs by Western blot method (reference value: 100%)
[6] = target: T1, Baculoviral IAP repeat-containing protein 3/Huntingtin (Homo sapiens); test: Induction of IAP-huntingtin interaction-mediated huntingtin protein degradation in fibroblasts derived from normal human subjects assessed as huntingtin protein level at 10 uM incubated for 96 hrs by Western blot method (reference value: 100%)
[7] = target: T1, Baculoviral IAP repeat-containing protein 3/Huntingtin (Homo sapiens); test: Induction of IAP-huntingtin interaction-mediated huntingtin protein degradation in fibroblasts derived from Huntington's disease patient incubated for 24 hrs by Western blot method
[8] = target: T1, Baculoviral IAP repeat-containing protein 3/Huntingtin (Homo sapiens); test: Induction of IAP-huntingtin interaction-mediated huntingtin protein degradation in fibroblasts derived from Huntington's disease patient incubated for 48 to 72 hrs by Western blot method
[9] = target: T1, Baculoviral IAP repeat-containing protein 3/Huntingtin (Homo sapiens); test: Induction of immobilized GST tagged BIR3 (unknown origin)/insoluble GST-tagged huntingtin 62Q mutant (unknown origin) interaction at 3 to 30 uM incubated for 1.5 hrs at 37 degC by ELISA
[10] = target: T1, Baculoviral IAP repeat-containing protein 3/Huntingtin (Homo sapiens); test: Induction of immobilized GST tagged BIR3 (unknown origin)/soluble GST-tagged huntingtin 62Q mutant (unknown origin) interaction at 3 to 30 uM incubated for 1.5 hrs at 37 degC by ELISA
[11] = target: T1, Baculoviral IAP repeat-containing protein 3/Huntingtin (Homo sapiens); test: Induction of immobilized GST tagged BIR3 (unknown origin)/soluble GST-tagged huntingtin 62Q mutant (unknown origin) interaction at 10 uM in presence of 3 and 10 uM MV1 incubated for 1.5 hrs at 37 degC by ELISA
[12] = target: T1, Baculoviral IAP repeat-containing protein 3/Huntingtin (Homo sapiens); test: Induction of immobilized GST tagged BIR3 (unknown origin)/soluble GST-tagged huntingtin 62Q mutant (unknown origin) interaction at 10 uM in presence of 10 and 100 uM thioflavin T incubated for 1.5 hrs at 37 degC by ELISA

| Activity [1] | Activity [2] | Activity [3] | Activity [4] | Activity [5] | Activity [6] | Activity [7] | Activity [8] | Activity [9] | Activity [10] | Activity [11] | Activity [12] | SMILES |
| --- | --- | --- | --- | --- | --- | --- | --- | --- | --- | --- | --- | --- |
| Active | Active | Active | Active | Active | Active | – | – | – | – | – | – | Cc1ccc2nc(-c3ccc(NCCOCCOCCNC(=O)[C@H](CC(C)C)NC(=O)[C@@H](O)[C@H](N)Cc4ccccc4)cc3)sc2c1 |
| Active | – | 72% | 70% | 76% | 44% | Dose-dependent effect | Active | Active | Active | inactive | inactive | CN[C@@H](C)C(=O)N[C@H](C(=O)N1CCC[C@H]1C(=O)N[C@H](C(=O)NCCOCCOCCOc1ccc2nc(/N=N/c3ccc(N(C)C)cc3)sc2c1)C(c1ccccc1)c1ccccc1)C1CCCCC1 (H-[NMeA][Chg]P[Dip]-X1) |
| Active | Active | Active | Active | Active | Active | – | – | – | – | – | – | CC(C)C[C@H](NC(=O)[C@@H](O)[C@H](N)Cc1ccccc1)C(=O)NCCOCCOCCOc1ccc2nc(/N=N/c3ccc(N(C)C)cc3)sc2c1 |
